According to ChEMBL document CHEMBL4393743, “Anti-tumor activity evaluation of novel tubulin and HDAC dual-targeting inhibitors” (Bioorg Med Chem Lett, 2019):

Assays:
Histone deacetylase 8 = biological target: T1, Histone deacetylase 8 (Homo sapiens, UniProt Q9BY41); experiment: Inhibition of HDAC8 (unknown origin) using Boc-Lys(Ac)-AMC as substrate incubated for 60 mins by fluorescence assay
T1 sequence (Q9BY41 whole entry): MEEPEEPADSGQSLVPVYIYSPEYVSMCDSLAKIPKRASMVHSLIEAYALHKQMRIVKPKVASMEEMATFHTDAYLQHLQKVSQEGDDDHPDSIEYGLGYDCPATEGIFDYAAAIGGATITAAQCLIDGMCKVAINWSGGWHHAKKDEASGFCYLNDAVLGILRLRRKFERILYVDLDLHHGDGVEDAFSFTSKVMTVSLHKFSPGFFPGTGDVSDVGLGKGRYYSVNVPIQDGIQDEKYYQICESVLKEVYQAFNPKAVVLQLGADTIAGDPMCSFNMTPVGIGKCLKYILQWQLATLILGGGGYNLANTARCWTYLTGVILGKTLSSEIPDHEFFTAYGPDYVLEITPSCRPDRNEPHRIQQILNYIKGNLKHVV

A549 [1] = experiment: Induction of apoptosis in human A549 cells assessed as late apoptotic cells at 10 uM incubated for 72 hrs by Annexin V-FITC/propidium iodide-staining based flow cytometric analysis (reference value: 5.69%); format: functional
A549 [2] = experiment: Induction of apoptosis in human A549 cells assessed as early apoptotic cells at 0.3 uM incubated for 72 hrs by Annexin V-FITC/propidium iodide-staining based flow cytometric analysis (reference value: 1.8%); format: functional
A549 [3] = experiment: Induction of cell cycle arrest in human A549 cells assessed as accumulation at G2/M phase incubated for 36 hrs by propidium iodide staining based flow cytometry; format: functional
A549 [4] = experiment: Induction of cell cycle arrest in human A549 cells assessed as accumulation at G2/M phase at 1 uM incubated for 36 hrs by propidium iodide staining based flow cytometry (reference value: 10.83%); format: functional
A549 [5] = experiment: Induction of apoptosis in human A549 cells assessed as live cells at 1 uM incubated for 72 hrs by Annexin V-FITC/propidium iodide-staining based flow cytometric analysis (reference value: 89.8%); format: functional
MDA-MB-231 = experiment: Antiproliferative activity against human MDA-MB-231 cells assessed as cell growth inhibition incubated for 72 hrs by MTT assay; format: functional, cell-based; details: MDA-MB-231, 72 h
A549 [6] = experiment: Induction of cell cycle arrest in human A549 cells assessed as accumulation at G2/M phase at 10 uM incubated for 36 hrs by propidium iodide staining based flow cytometry (reference value: 10.83%); format: functional
A549 [7] = experiment: Induction of cell cycle arrest in human A549 cells assessed as accumulation at S phase at 0.3 uM incubated for 36 hrs by propidium iodide staining based flow cytometry (reference value: 16.66%); format: functional
A549 [8] = experiment: Induction of apoptosis in human A549 cells assessed as late apoptotic cells at 1 uM incubated for 72 hrs by Annexin V-FITC/propidium iodide-staining based flow cytometric analysis (reference value: 5.69%); format: functional
A549 [9] = experiment: Induction of apoptosis in human A549 cells assessed as necrotic cells at 0.3 uM incubated for 72 hrs by Annexin V-FITC/propidium iodide-staining based flow cytometric analysis (reference value: 2.76%); format: functional
A549 [10] = experiment: Induction of cell cycle arrest in human A549 cells assessed as accumulation at S phase at 10 uM incubated for 36 hrs by propidium iodide staining based flow cytometry (reference value: 16.66%); format: functional
A549 [11] = experiment: Induction of apoptosis in human A549 cells assessed as early apoptotic cells at 10 uM incubated for 72 hrs by Annexin V-FITC/propidium iodide-staining based flow cytometric analysis (reference value: 1.8%); format: functional
A549 [12] = experiment: Induction of apoptosis in human A549 cells assessed as live cells at 0.3 uM incubated for 72 hrs by Annexin V-FITC/propidium iodide-staining based flow cytometric analysis (reference value: 89.8%); format: functional
BGC-823 = experiment: Antiproliferative activity against human BGC823 cells assessed as cell growth inhibition incubated for 72 hrs by MTT assay; format: functional, cell-based; details: BGC-823, 72 h
MCF7 = experiment: Antiproliferative activity against human MCF7 cells assessed as cell growth inhibition incubated for 72 hrs by MTT assay; format: functional, cell-based; details: MCF7, 72 h
A549 [13] = experiment: Induction of cell cycle arrest in human A549 cells assessed as accumulation at G0/G1 phase at 1 uM incubated for 36 hrs by propidium iodide staining based flow cytometry (reference value: 72.51%); format: functional
A549 [14] = experiment: Induction of apoptosis in human A549 cells assessed as necrotic cells at 1 uM incubated for 72 hrs by Annexin V-FITC/propidium iodide-staining based flow cytometric analysis (reference value: 2.76%); format: functional
Histone deacetylase 1 = Histone deacetylase 1 (Homo sapiens, UniProt Q13547); experiment: Inhibition of HDAC1 (unknown origin) using Boc-Lys(Ac)-AMC as substrate incubated for 60 mins by fluorescence assay
A549 [15] = experiment: Induction of apoptosis in human A549 cells assessed as early apoptotic cells at 1 uM incubated for 72 hrs by Annexin V-FITC/propidium iodide-staining based flow cytometric analysis (reference value: 1.8%); format: functional
A549 [16] = experiment: Induction of cell cycle arrest in human A549 cells assessed as accumulation at G0/G1 phase at 0.1 uM incubated for 36 hrs by propidium iodide staining based flow cytometry (reference value: 72.51%); format: functional
A549 [17] = experiment: Induction of apoptosis in human A549 cells assessed as necrotic cells at 10 uM incubated for 72 hrs by Annexin V-FITC/propidium iodide-staining based flow cytometric analysis (reference value: 2.76%); format: functional
Tubulin = experiment: Inhibition of tubulin polymerization (unknown origin) by spectrophotometric method; format: protein-complex assay, Homo sapiens
A549 [18] = experiment: Induction of cell cycle arrest in human A549 cells assessed as accumulation at G0/G1 phase at 0.3 uM incubated for 36 hrs by propidium iodide staining based flow cytometry (reference value: 72.51%); format: functional
A549 [19] = experiment: Induction of apoptosis in human A549 cells assessed as live cells at 10 uM incubated for 72 hrs by Annexin V-FITC/propidium iodide-staining based flow cytometric analysis (reference value: 89.8%); format: functional
LoVo = experiment: Antiproliferative activity against human LoVo cells assessed as cell growth inhibition incubated for 72 hrs by MTT assay; format: functional, cell-based
A549 [20] = experiment: Induction of cell cycle arrest in human A549 cells assessed as accumulation at G2/M phase at 0.3 uM incubated for 36 hrs by propidium iodide staining based flow cytometry (reference value: 10.83%); format: functional
A549 [21] = experiment: Induction of cell cycle arrest in human A549 cells assessed as accumulation at G0/G1 phase at 3 uM incubated for 36 hrs by propidium iodide staining based flow cytometry (reference value: 72.51%); format: functional

Histone deacetylase 1, sequence (Q13547 whole entry): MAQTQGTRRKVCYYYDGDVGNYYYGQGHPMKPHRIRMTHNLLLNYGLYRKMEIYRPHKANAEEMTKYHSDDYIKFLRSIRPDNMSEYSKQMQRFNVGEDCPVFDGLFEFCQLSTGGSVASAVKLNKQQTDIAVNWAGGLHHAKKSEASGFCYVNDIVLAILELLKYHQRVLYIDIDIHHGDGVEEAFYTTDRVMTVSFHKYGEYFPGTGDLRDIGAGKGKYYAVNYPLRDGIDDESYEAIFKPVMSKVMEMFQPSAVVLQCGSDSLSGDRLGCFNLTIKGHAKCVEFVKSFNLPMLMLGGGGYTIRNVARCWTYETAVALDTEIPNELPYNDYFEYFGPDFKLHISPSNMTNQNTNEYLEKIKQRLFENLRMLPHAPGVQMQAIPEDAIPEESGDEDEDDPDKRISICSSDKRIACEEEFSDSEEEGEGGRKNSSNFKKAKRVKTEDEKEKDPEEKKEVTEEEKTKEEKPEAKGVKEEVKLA

IC50 (Histone deacetylase 8): 1.7 µM | IC50 (MDA-MB-231): 6.95 µM | IC50 (BGC-823): 2.4 µM | IC50 (MCF7): 7.33 µM | IC50 (Histone deacetylase 1): 0.996 µM | IC50 (Tubulin): 54.5 µM | IC50 (LoVo): 4.88 µM
Compound: COc1ccc(/C=C(\C)C(=O)c2cc(OC)c(OC)c(OC)c2)cc1OCCCC(=O)NO
Activity (A549 [1]): 28.5% | Activity (A549 [2]): 7.73% | Activity (A549 [3]): Dose-dependent effect | Activity (A549 [4]): 62.89% | Activity (A549 [5]): 58.9% | Activity (A549 [6]): 81.88% | Activity (A549 [7]): 39.96% | Activity (A549 [8]): 26.4% | Activity (A549 [9]): 2.19% | Activity (A549 [10]): 16.55% | Activity (A549 [11]): 8.81% | Activity (A549 [12]): 79.9% | Activity (A549 [13]): 16.57% | Activity (A549 [14]): 8.05% | Activity (A549 [15]): 6.6% | Activity (A549 [16]): 68.44% | Activity (A549 [17]): 8% | Activity (A549 [18]): 46.23% | Activity (A549 [19]): 54.7% | Activity (A549 [20]): 13.81% | Activity (A549 [21]): 9.13%
